The source of these data is patent US9624170B2, “4-(piperrazin-1-yl)-pyrrolidin-2-one compounds as monoacylglycerol lipase (MAGL) inhibitors” (TAKEDA PHARMACEUTICAL COMPANY LIMITED, priority 2013, dated 2017).

In general, inhibition refers to the drop in the measured response relative to a control, in per cent.

Counter-ions that a name gives are not always drawn.

In this assay the target is T1, human MAGL (His-hMAGL) (Homo sapiens, UniProt Q99685).
T1 construct: made in house; host or cells: Escherichia coli BL21(DE3)
T1 sequence (Q99685 1-303): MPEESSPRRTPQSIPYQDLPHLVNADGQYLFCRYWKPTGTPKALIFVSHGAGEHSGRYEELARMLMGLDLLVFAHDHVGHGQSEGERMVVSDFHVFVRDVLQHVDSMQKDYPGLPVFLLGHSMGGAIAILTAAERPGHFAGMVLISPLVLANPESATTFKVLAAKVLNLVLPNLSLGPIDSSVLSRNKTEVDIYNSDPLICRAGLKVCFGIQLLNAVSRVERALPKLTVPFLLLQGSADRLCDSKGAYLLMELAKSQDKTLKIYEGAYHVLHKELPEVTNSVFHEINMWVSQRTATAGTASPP
Description: Measurement of MAGL inhibitory activity by mass spectrometry. The class given is biochemical. As to conditions: MAGL inhibitory rate, test compound 10 μM, His-hMAGL, substrate 2-arachidonylglycerol, RapidFire-mass spectrometry. The procedure, abridged:
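His-tagged human MAGL was reacted with 150 μM 2-arachidonylglycerol substrate (stock, added by 5 μL) for 10 min at room temperature, then stopped with formic acid. Arachidonic acid product was quantified by RapidFire–triple-quadrupole MS in negative SRM mode, corrected by arachidonic acid-d8, and converted to percent inhibition.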
For `O=C(c1nccs1)N1CCN([C@@H]2CC(=O)N(c3ccc4c(ccn4-c4cnc(C(F)(F)F)cn4)c3)C2)CC1` [Example 245, (4R)-4-(4-(1,3-thiazol-2-ylcarbonyl)piperazin-1-yl)-1-(1-(5-(trifluoromethyl)pyrazin-2-yl)-1H-indol-5-yl)pyrrolidin-2-one], the inhibition at 10 µM was 98%. The value for `O=C(c1nccs1)N1CCN([C@@H]2CC(=O)N(c3ccc4c(ccn4-c4ccnc(C(F)(F)F)c4)c3)C2)CC1` [Example 246, (4R)-4-(4-(1,3-thiazol-2-ylcarbonyl)piperazin-1-yl)-1-(1-(2-(trifluoromethyl)pyridin-4-yl)-1H-indol-5-yl)pyrrolidin-2-one] was 98%; that for `Cc1ccc(-c2ccccc2)cc1N1CC(N2CCN(C(=O)c3nccs3)CC2)CC1=O` (stereo not shown) [Example 247, 1-(4-methylbiphenyl-3-yl)-4-(4-(1,3-thiazol-2-ylcarbonyl)piperazin-1-yl)pyrrolidin-2-one] was 99%; that for `Cc1ccc(N2CC(N3CCN(C(=O)c4nccs4)CC3)CC2=O)cc1-c1ccccc1` (stereo not shown) [Example 248, 1-(6-methylbiphenyl-3-yl)-4-(4-(1,3-thiazol-2-ylcarbonyl)piperazin-1-yl)pyrrolidin-2-one] was 103%.

With `Cc1c(-c2ccccc2)cccc1N1CC(N2CCN(C(=O)c3nccs3)CC2)CC1=O` (stereo not shown) [Example 249, 1-(2-methylbiphenyl-3-yl)-4-(4-(1,3-thiazol-2-ylcarbonyl)piperazin-1-yl)pyrrolidin-2-one], the inhibition at 10 µM was determined as 96%. In the case of `O=C(c1nccs1)N1CCN(C2CC(=O)N(c3ccc4c(ccn4-c4ccccc4)c3)C2)CC1` (stereo not shown) [Example 250, 1-(1-phenyl-1H-indol-5-yl)-4-(4-(1,3-thiazol-2-ylcarbonyl)piperazin-1-yl)pyrrolidin-2-one], the inhibition at 10 µM was 101%. Next, `Cc1cccc(-n2ccc3cc(N4CC(N5CCN(C(=O)c6nccs6)CC5)CC4=O)ccc32)c1` (stereo not shown) [Example 251, 1-(1-(3-methylphenyl)-1H-indol-5-yl)-4-(4-(1,3-thiazol-2-ylcarbonyl)piperazin-1-yl)pyrrolidin-2-one]: 102%; `Cc1ccnc(-n2ccc3cc(N4CC(N5CCN(C(=O)c6nccs6)CC5)CC4=O)ccc32)c1` (stereo not shown) [Example 252, 1-(1-(4-methylpyridin-2-yl)-1H-indol-5-yl)-4-(4-(1,3-thiazol-2-ylcarbonyl)piperazin-1-yl)pyrrolidin-2-one]: 103%. Next, `Cc1ccccc1-n1ccc2cc(N3CC(N4CCN(C(=O)c5nccs5)CC4)CC3=O)ccc21` (stereo not shown) [Example 253, 1-(1-(2-methylphenyl)-1H-indol-5-yl)-4-(4-(1,3-thiazol-2-ylcarbonyl)piperazin-1-yl)pyrrolidin-2-one]: 101%. The value for `O=C1CC(N2CCN(c3ncccn3)CC2)CN1c1cccc(I)c1` (stereo not shown) [Example 254, 1-(3-iodophenyl)-4-(4-(pyrimidin-2-yl)piperazin-1-yl)pyrrolidin-2-one] was 95%; that for `Cc1cc(-n2ccc3cc(N4CC(N5CCN(C(=O)c6nccs6)CC5)CC4=O)ccc32)ccn1` (stereo not shown) [Example 255, 1-(1-(2-methylpyridin-4-yl)-1H-indol-5-yl)-4-(4-(1,3-thiazol-2-ylcarbonyl)piperazin-1-yl)pyrrolidin-2-one] was 101%; that for `Cc1ncccc1-c1cccc(N2CC(N3CCN(c4ncccn4)CC3)CC2=O)c1` (stereo not shown) [Example 256, 1-(3-(2-Methylpyridin-3-yl)phenyl)-4-(4-(pyrimidin-2-yl)piperazin-1-yl)pyrrolidin-2-one] was 102%. In the case of `O=C(c1nccs1)N1CCN([C@@H]2CC(=O)N(c3ccc4c(ccn4-c4ncc(C(F)(F)F)cn4)c3)C2)CC1` [Example 257, (4R)-4-(4-(1,3-Thiazol-2-ylcarbonyl)piperazin-1-yl)-1-(1-(5-(trifluoromethyl)pyrimidin-2-yl)-1H-indol-5-yl)pyrrolidin-2-one hydrochloride], the inhibition at 10 µM is 99%.
